Measured values reported in patent publication US4352885A, “Preparation of a novel NADP linked alcohol-aldehyde/ketone oxidoreductase from thermophilic anaerobic bacteria for analytical and commercial use” (Wisconsin Alumni Research Foundation, priority 1980, dated 1982).

Experiments:
[1] = target: T1, heat treated T. brockii extract (Thermoanaerobacter brockii, UniProt P14941); assay: Reduction of 2-pentanone by heat treated extract with NADPH regenerating system (gas chromatographic analysis); format: biochemical, Thermoanaerobium brockii; details: 3 g in 150 ml; 0.2 v/v isopropanol, 0.3 mM NADP; 40 hr. at 37° C.
T1 construct: made in house; host or cells: T. brockii itself (native host; heat treated crude extract)
T1 sequence (P14941 1-352): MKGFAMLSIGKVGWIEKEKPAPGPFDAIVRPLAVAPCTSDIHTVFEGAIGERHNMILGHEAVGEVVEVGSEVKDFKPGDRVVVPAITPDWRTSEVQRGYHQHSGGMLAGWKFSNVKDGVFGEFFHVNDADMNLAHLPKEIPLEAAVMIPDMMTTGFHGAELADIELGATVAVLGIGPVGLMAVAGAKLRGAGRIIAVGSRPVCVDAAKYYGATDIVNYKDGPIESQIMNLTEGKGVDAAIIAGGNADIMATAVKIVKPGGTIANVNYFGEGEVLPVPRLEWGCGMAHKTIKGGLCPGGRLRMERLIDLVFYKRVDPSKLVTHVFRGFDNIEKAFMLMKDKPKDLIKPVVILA
Description: As illustrated in the following reaction diagram, an NADPH regenerating system can be initiated with isopropanol as the electron donor for the reduction of 2-pentanone. [drawing 1] A 150 ml solution was prepared containing 50 mM Tris-HCl (pH 7.8), 0.2 v/v isopropanol, 2 mM dithiothreitol, 0.3 mM NADP and 3 g 2-pentanone. After the solution was degassed with N2, sufficient heat treated T. brockii extract was added to yield an activity of 1 U/min./ml. The solution was incubated in a stoppered vessel for 40 hr. at 37° C. Gas chromatographic analysis indicated a 90% conversion of 2-pentanone to the corresponding alcohol. The mixture was extracted with diethyl ether and then fractionally distilled. The fractions were analyzed by conventional gas chromatographic and NMR (nuclear magnetic resonance) methods. The pure 2-pentanol fraction yielded a dextrorotatory optical rotation which corresponded to that of a highly optically enriched compound. The result in optical purity was dependent on incubation temperature and initial rate of isopropanol to 2-pentanone. Decreasing the temperature from 37° C. to 25° C. and the 2-pentanone concentration from 3 grams/150 ml to 0.6 grams/150 ml, increases the d/l bar ratio from 6/l to 9/l for the resulting 2-pentanol.

[2] = target: T2, NADP linked alcohol dehydrogenase (alcohol-aldehyde/ketone oxidoreductase) (Thermoanaerobacter brockii, UniProt P14941); assay: Specific activity of partially purified NADP linked alcohol dehydrogenase with alcohols and carbonyl compounds (absorbance at 334 nm); format: biochemical, Thermoanaerobium brockii; details: saturating substrate (0.2-0.5 M alcohol or ketone, 10 mM acetaldehyde); 0.5 mM NADP or 0.2 mM NADPH; 0.1 M Tris-Cl pH 7.8
T2 construct: of the T. brockii enzyme preparation with various alcohols and carbonyl compounds; made in house; host or cells: T. brockii itself (native host; partially purified enzyme)
T2 sequence (P14941 1-352): T1 sequence (P14941 1-352)

CCCC(C)=O [CH3 COCH2 CH2 CH3, 2-pentanone]
Conversion to the corresponding alcohol [1]: 90%
Activity V/mg. at 60° C. [2]: 4.2 μ Mole/Min./Mg Protein
